Assay results published in patent US20250179078A1, “INHIBITORS OF NLRP3” (PTC THERAPEUTICS, INC., priority 2022, published 2025).
pIC50: −log10 of the molar value.

Target: T1, NLRP3 (Homo sapiens, UniProt Q96P20)
T1 construct: host or cells: THP-1 cells differentiated with PMA
Assay: IL-1β Secretion Assay (NLRP3-dependent IL1β secretion in THP1 cells)
Assay type: cell-based
Conditions: PMA-differentiated THP-1 cells; compounds incubated 20 h; 2.5 μM Nigericin 3 h; HTRF IL-1β readout; read-out: IC50 IL-1β Inhibition
Procedure, shortened: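 THP-1 cells differentiated with 100 ng/mL PMA for 24 h, then given compound (7-point 3-fold series, 1:200 from DMSO) for 20 h in RPMI+5% FBS. NLRP3 activated with 2.5 μM nigericin for 3 h; secreted IL-1β measured by HTRF; IC50 from logistic fit of % inhibition.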

T1 sequence (Q96P20 whole entry): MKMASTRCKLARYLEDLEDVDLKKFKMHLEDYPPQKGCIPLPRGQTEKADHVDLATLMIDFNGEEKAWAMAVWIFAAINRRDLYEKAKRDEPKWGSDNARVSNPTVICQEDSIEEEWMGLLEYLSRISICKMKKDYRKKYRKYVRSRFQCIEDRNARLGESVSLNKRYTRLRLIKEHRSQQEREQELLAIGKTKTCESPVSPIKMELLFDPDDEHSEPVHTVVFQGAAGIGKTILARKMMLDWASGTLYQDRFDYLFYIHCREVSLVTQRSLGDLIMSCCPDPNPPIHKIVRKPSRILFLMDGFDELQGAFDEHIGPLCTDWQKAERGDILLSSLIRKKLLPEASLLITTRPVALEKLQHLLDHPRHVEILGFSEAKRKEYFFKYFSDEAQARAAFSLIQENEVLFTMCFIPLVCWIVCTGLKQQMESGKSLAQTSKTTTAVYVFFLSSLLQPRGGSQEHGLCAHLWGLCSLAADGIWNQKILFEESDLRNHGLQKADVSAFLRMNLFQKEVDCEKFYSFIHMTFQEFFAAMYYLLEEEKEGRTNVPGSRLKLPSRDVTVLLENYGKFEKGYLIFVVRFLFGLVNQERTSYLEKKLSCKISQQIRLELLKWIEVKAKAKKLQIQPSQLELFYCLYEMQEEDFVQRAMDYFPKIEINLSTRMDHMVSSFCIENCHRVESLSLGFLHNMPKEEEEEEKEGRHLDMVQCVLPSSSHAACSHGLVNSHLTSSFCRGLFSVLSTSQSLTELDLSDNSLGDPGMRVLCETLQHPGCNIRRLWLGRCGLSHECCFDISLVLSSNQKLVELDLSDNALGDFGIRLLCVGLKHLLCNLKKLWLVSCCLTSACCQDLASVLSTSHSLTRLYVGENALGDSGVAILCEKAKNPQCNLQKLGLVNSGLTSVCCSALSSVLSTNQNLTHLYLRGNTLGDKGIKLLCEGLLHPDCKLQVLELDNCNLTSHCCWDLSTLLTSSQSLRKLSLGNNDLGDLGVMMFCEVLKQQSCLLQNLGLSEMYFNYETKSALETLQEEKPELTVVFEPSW

Structure (SMILES)	pIC50
COc1ccc(-c2nnc(N[C@H]3C[C@@](C)(O)C3)n3nc(C)cc23)c(CC(F)(F)F)c1 [Compound 387, (1s,3s)-3-({4-[4-methoxy-2-(2,2,2-trifluoroethyl)phenyl]-2-methylpyrazolo[1,5-d][1,2,4]triazin-7-yl}amino)-1-methylcyclobutan-1-ol]	8.00 to 9.00
COc1ccc(-c2nnc(N[C@H]3C[C@@](C)(O)C3)n3ccc(F)c23)c(C(F)(F)F)c1 [Compound 130, (1s,3s)-3-({8-fluoro-1-[4-methoxy-2-(trifluoromethyl)phenyl]pyrrolo[1,2-d][1,2,4]triazin-4-yl}amino)-1-methylcyclobutan-1-ol]	8.00 to 9.00
COc1ccc(-c2nnc(N[C@@H]3CCCC[C@H]3O)n3cccc23)c(CC(F)(F)F)c1 [Compound 138, (1R,2R)-2-({1-[4-methoxy-2-(2,2,2-trifluoroethyl)phenyl]pyrrolo[1,2-d][1,2,4]triazin-4-yl}amino)cyclohexan-1-ol]	8.00 to 9.00
COc1ccc(-c2nnc(NC3CCNC3=O)n3cncc23)c(C(F)(F)F)c1 (centres unmarked) [Compound 235, 3-({1-[4-methoxy-2-(trifluoromethyl)phenyl]imidazo[1,5-d][1,2,4]triazin-4-yl}amino)pyrrolidin-2-one]	8.00 to 9.00
COc1ccc(-c2nnc(N[C@@H]3CCOC[C@H]3O)n3cc(C)cc23)c(OC(F)(F)F)c1 [Compound 165, (3S,4R)-4-({1-[4-methoxy-2-(trifluoromethoxy)phenyl]-7-methylpyrrolo[1,2-d][1,2,4]triazin-4-yl}amino)oxan-3-ol]	8.00 to 9.00
COc1ccc(-c2nnc(N[C@@H]3CCCN(C)C3)n3cccc23)c(OC(F)(F)F)c1 [Compound 8, 1-[4-methoxy-2-(trifluoromethoxy)phenyl]-N-[(3R)-1-methylpiperidin-3-yl]pyrrolo[1,2-d][1,2,4]triazin-4-amine]	8.00 to 9.00
COc1ccc(-c2nnc(N[C@@H]3CCOC[C@H]3O)n3cccc23)c(CC(F)(F)F)c1 [Compound 144, (3S,4R)-4-({1-[4-methoxy-2-(2,2,2-trifluoroethyl)phenyl]pyrrolo[1,2-d][1,2,4]triazin-4-yl}amino)oxan-3-ol]	8.00 to 9.00
Cc1ccc(-c2nnc(N[C@@H]3CCCN(CCO)C3)n3cccc23)c(OC(F)F)c1 [Compound 45, 2-[(3R)-3-({1-[2-(difluoromethoxy)-4-methylphenyl]pyrrolo[1,2-d][1,2,4]triazin-4-yl}amino)piperidin-1-yl]ethan-1-ol]	7.00 to 8.00
CN1C[C@H](F)C[C@@H](Nc2nnc(-c3ccc(Cl)cc3OC(F)F)c3cncn23)C1 [Compound 193, 1-[4-chloro-2-(difluoromethoxy)phenyl]-N-[(3R,5R)-5-fluoro-1-methylpiperidin-3-yl]imidazo[1,5-d][1,2,4]triazin-4-amine]	8.00 to 9.00
OCCN1CCC[C@@H](Nc2nnc(-c3ccc(C(F)(F)F)cc3F)c3cccn23)C1 [Compound 21, 2-[(3R)-3-({1-[2-fluoro-4-(trifluoromethyl)phenyl]pyrrolo[1,2-d][1,2,4]triazin-4-yl}amino)piperidin-1-yl]ethan-1-ol]	7.00 to 8.00
COc1ccc(-c2nnc(NC[C@H]3CCCO3)n3cccc23)c(OC(F)(F)F)c1 [Compound 73, 1-[4-methoxy-2-(trifluoromethoxy)phenyl]-N-{[(2R)-oxolan-2-yl]methyl}pyrrolo[1,2-d][1,2,4]triazin-4-amine]	7.00 to 8.00
C[C@]1(CO)C[C@@H](Nc2nnc(-c3ccc(C(F)(F)F)cc3OC(F)(F)F)c3cncn23)C1 [Compound 340, [(1s,3s)-1-methyl-3-({1-[2-(trifluoromethoxy)-4-(trifluoromethyl)phenyl]imidazo[1,5-d][1,2,4]triazin-4-yl}amino)cyclobutyl]methanol]	8.00 to 9.00
Cc1cc2c(-c3ccc(C(F)(F)F)cc3OC(F)(F)F)nnc(N[C@H]3C[C@@](C)(O)C3)n2n1 [Compound 3, (1s,3s)-1-methyl-3-({2-methyl-4-[2-(trifluoromethoxy)-4-(trifluoromethyl)phenyl]pyrazolo[1,5-d][1,2,4]triazin-7-yl}amino)cyclobutan-1-ol]	8.00 to 9.00
C[C@]1(O)C[C@@H](Nc2nnc(-c3ccc(Cl)cc3OC(F)(F)F)c3cncn23)C1 [Compound 299, (1s,3s)-3-({1-[4-chloro-2-(trifluoromethoxy)phenyl]imidazo[1,5-d][1,2,4]triazin-4-yl}amino)-1-methylcyclobutan-1-ol]	8.00 to 9.00
CC(Nc1nnc(-c2ccc(OC(F)F)cc2OC(F)(F)F)c2cccn12)c1cccc(O)c1 (centres unmarked) [Compound 172, 3-[1-({1-[4-(difluoromethoxy)-2-(trifluoromethoxy)phenyl]pyrrolo[1,2-d][1,2,4]triazin-4-yl}amino)ethyl]phenol]	> 9.00

Now from value to compound:

pIC50	Structure (SMILES)
7.00 to 8.00	Cc1ccc(-c2nnc(N[C@H]3C[C@@H](CO)C3)n3cncc23)c(OC(F)(F)F)c1 [Compound 347, [(1s,3s)-3-({1-[4-methyl-2-(trifluoromethoxy)phenyl]imidazo[1,5-d][1,2,4]triazin-4-yl}amino)cyclobutyl]methanol]
8.00 to 9.00	O=C1NCCC1Nc1nnc(-c2ccc(C3CC3)cc2CC(F)(F)F)c2cncn12 (centres unmarked) [Compound 350, 3-({1-[4-cyclopropyl-2-(2,2,2-trifluoroethyl)phenyl]imidazo[1,5-d][1,2,4]triazin-4-yl}amino)pyrrolidin-2-one]
8.00 to 9.00	Cc1ccc(-c2nnc(N[C@@H]3CCCN(C)C3)n3cncc23)c(CC(F)(F)F)c1 [Compound 317, N-[(3R)-1-methylpiperidin-3-yl]-1-[4-methyl-2-(2,2,2-trifluoroethyl)phenyl]imidazo[1,5-d][1,2,4]triazin-4-amine]
8.00 to 9.00	O[C@H]1COCC[C@H]1Nc1nnc(-c2ccc(C(F)(F)F)cc2CC(F)(F)F)c2cccn12 [Compound 114, (3R,4R)-4-({1-[2-(2,2,2-trifluoroethyl)-4-(trifluoromethyl)phenyl]pyrrolo[1,2-d][1,2,4]triazin-4-yl}amino)oxan-3-ol]
8.00 to 9.00	Cc1cc2c(-c3ccc(C(F)(F)F)cc3C(F)F)nnc(N[C@@H]3CCCN(C)C3)n2n1 [Compound 359, 4-[2-(difluoromethyl)-4-(trifluoromethyl)phenyl]-2-methyl-N-[(3R)-1-methylpiperidin-3-yl]pyrazolo[1,5-d][1,2,4]triazin-7-amine]
8.00 to 9.00	O=C1NCCC1Nc1nnc(-c2ccc(Cl)cc2OC(F)(F)F)c2cncn12 (centres unmarked) [Compound 287, 3-({1-[4-chloro-2-(trifluoromethoxy)phenyl]imidazo[1,5-d][1,2,4]triazin-4-yl}amino)pyrrolidin-2-one]
> 9.00	COc1ccc(-c2nnc(N[C@@H]3CCCN(C)C3)n3cncc23)c(OC(F)(F)F)c1 [Compound 208, 1-[4-methoxy-2-(trifluoromethoxy)phenyl]-N-[(3R)-1-methylpiperidin-3-yl]imidazo[1,5-d][1,2,4]triazin-4-amine]
8.00 to 9.00	CCN1CCC[C@@H](Nc2nnc(-c3ccc(C)cc3SC)c3cc(C)nn23)C1 [Compound 367, N-[(3R)-1-ethylpiperidin-3-yl]-2-methyl-4-[4-methyl-2-(methylsulfanyl)phenyl]pyrazolo[1,5-d][1,2,4]triazin-7-amine]
> 9.00	O[C@@H]1CCCC[C@H]1Nc1nnc(-c2ccc(OC(F)F)cc2OC(F)(F)F)c2cncn12 [Compound 246, (1R,2R)-2-({1-[4-(difluoromethoxy)-2-(trifluoromethoxy)phenyl]imidazo[1,5-d][1,2,4]triazin-4-yl}amino)cyclohexan-1-ol]
7.00 to 8.00	COc1ccc(-c2nnc(NCc3cc[nH]n3)n3cncc23)c(OC(F)(F)F)c1 [Compound 234, 1-[4-methoxy-2-(trifluoromethoxy)phenyl]-N-[(1H-pyrazol-3-yl)methyl]imidazo[1,5-d][1,2,4]triazin-4-amine]
7.00 to 8.00	CCN1CC[C@H](O)[C@@H](Nc2nnc(-c3ccc(C(F)(F)F)cc3OC(F)F)c3cccn23)C1 [Compound 46, (3S,4S)-3-({1-[2-(difluoromethoxy)-4-(trifluoromethyl)phenyl]pyrrolo[1,2-d][1,2,4]triazin-4-yl}amino)-1-ethylpiperidin-4-ol]
6.52 to 7.00	Cc1cc2c(-c3ccc(C(F)(F)F)cc3C(F)(F)F)nnc(N[C@@H]3CCOC[C@H]3O)n2c1 [Compound 164, (3S,4R)-4-({1-[2,4-bis(trifluoromethyl)phenyl]-7-methylpyrrolo[1,2-d][1,2,4]triazin-4-yl}amino)oxan-3-ol]
8.00 to 9.00	COc1ccc(-c2nnc(N[C@@H]3CCCN(CCO)C3)n3ccc(F)c23)c(OC(F)(F)F)c1 [Compound 51, 2-[(3R)-3-({8-fluoro-1-[4-methoxy-2-(trifluoromethoxy)phenyl]pyrrolo[1,2-d][1,2,4]triazin-4-yl}amino)piperidin-1-yl]ethan-1-ol]
8.00 to 9.00	COc1cc(F)c(-c2nnc(N[C@@H]3CCCN(C)C3)n3cccc23)c(C2CC2)c1 [Compound 75, 1-(2-cyclopropyl-6-fluoro-4-methoxyphenyl)-N-[(3R)-1-methylpiperidin-3-yl]pyrrolo[1,2-d][1,2,4]triazin-4-amine]
> 9.00	O=C1NCCC1Nc1nnc(-c2ccc(C(F)(F)F)cc2CC(F)(F)F)c2cncn12 (centres unmarked) [Compound 265, 3-({1-[2-(2,2,2-trifluoroethyl)-4-(trifluoromethyl)phenyl]imidazo[1,5-d][1,2,4]triazin-4-yl}amino)pyrrolidin-2-one]
> 9.00	Cc1cc2c(-c3ccc(C4CC4)cc3OC(F)F)nnc(N[C@@H]3CCCN(C)C3)n2n1 [Compound 360, 4-[4-cyclopropyl-2-(difluoromethoxy)phenyl]-2-methyl-N-[(3R)-1-methylpiperidin-3-yl]pyrazolo[1,5-d][1,2,4]triazin-7-amine]
8.00 to 9.00	CCN1CCC[C@@H](Nc2nnc(-c3ccc(OC)cc3Cl)c3c(F)ccn23)C1 [Compound 82, 1-(2-chloro-4-methoxyphenyl)-N-[(3R)-1-ethylpiperidin-3-yl]-8-fluoropyrrolo[1,2-d][1,2,4]triazin-4-amine]
